This note sets out measurements from patent US3984547A, “Veterinary feedstuffs” (Bayer Aktiengesellschaft, priority 1971, dated 1976).

One assay has as its system Mycoplasma bovirhinis. Description: MIC, series dilution test (PPLO medium). The assay is classed as cell-based. To be noted: 37° C, 18, 24 and 48 h, read-out: minimal inhibitory concentrations (MIC). As for the experimental part:
(§1) For the compound of Example 3, the following minimal inhibitory concentrations (MIC) (γ/ml of nutrient medium) were measured by the series dilution test (PPLO medium), incubation temperature 37° C, determination after 18, 24 and 48 hours.

A further assay concerns Mycoplasma gallisepticum. Description: MIC, series dilution test (PPLO medium). The assay is classed as cell-based. To be noted: Mycoplasmoides gallisepticum, 37° C, 18, 24 and 48 h, read-out: minimal inhibitory concentrations (MIC). As for the experimental part: as §1
The next assay deals with Mycoplasma granularum. Description: MIC, series dilution test (PPLO medium). The assay is classed as cell-based. To be noted: Acholeplasma granularum, 37° C, 18, 24 and 48 h, read-out: minimal inhibitory concentrations (MIC). As for the experimental part:
as §1

The next assay relates to Escherichia coli C 165. Description: ED100 in mice after intraperitoneal infection, Table 3. To be noted: read-out: effective 100% dose (ED100). The format is in vivo. How it is done:
In animal experiments on mice, the effective 100% dose (ED100) in mg/Kg was determined for certain compounds of the invention after intraperitoneal infection and subcutaneous (s.c.) or oral (p.o.) administration of the preparation.

Molecules are shown by their SMILES. ≈ marks a conversion by molar mass, not a printed value. Where two headings read alike, the source gives them in different places.

As for `CN=Cc1c(C(=O)O)[n+]([O-])c2ccccc2[n+]1[O-]` [Example 3], the figures for the MIC in the assay with Mycoplasma bovirhinis, in the assay on Mycoplasma gallisepticum and in the assay with Mycoplasma granularum were 200 µg/mL (≈ 809 µM), 100 µg/mL (≈ 405 µM) and 25 µg/mL (≈ 101 µM), respectively. In addition, the ED100 in the assay with Escherichia coli C 165 (C165, oral (p.c. [sic])) came out at 100 mg/kg; with Escherichia coli C 165 (C165, sc, s.c.), 50 mg/kg.
